Measured values published in patent US10815505B2, “Microbial oil extracted from stramenopiles” (priority 2009, dated 2020).
Several values for one entry are separate records, joined by “and”; a condition that tells them apart may be missing. Identical values can stand only once. Like-named read-outs stand apart in the source and are kept apart here.

Legend:
[1] = tested on: Saccharomyces cerevisiae (pYES2/CT, mock); test: Mock (pYES2/CT) introduced yeast, GC analysis of fatty acids; assay type: cell-based; details: 100 × product/(product + substrate)
Description: By using a plasmid containing the full length of the P. pyriformis-derived Δ12 desaturase gene as a template, a PCR was performed with primers Pry-F (SEQ ID NO: 60 in the Sequence Listing) and Pyr-R (SEQ ID NO: 61 in the Sequence Listing), using a PrimeSTAR GC polymerase kit (Takara Bio). The PCR added a HindIII restriction enzyme site and an XbaI restriction enzyme site at the both ends. The amplified fragments were incorporated in a pGEM-T-Easy vector (Promega), and sequence analysis was performed. […] As a result, a Δ12 desaturase gene expression vector pYpΔ12Des was constructed. […] For peaks that caused troubles in the analyses, the fatty acids were analyzed after picolinyl esterification, using the same apparatuses and columns under the temperature condition 240° C.→(2.5° C./min)→260° C. […]
In order to verify that the Δ12 desaturase was encoded by the acquired gene, an expression vector was constructed, and an expression experiment was conducted using a budding yeast S. cerevisiae (Invitrogen) as a host. […] The conversion efficiency from oleic acid to linoleic acid was 23.5±1.23%, as calculated according to the following equation. […]

[2] = tested on: T. aureum-derived Δ5 desaturase; assay type: cell-based, Thraustochytrium aureum; details: S. cerevisiae expressing TauΔ5des, (product × 100)/(substrate + product)
Description: In order to verify that the acquired gene was Δ5 desaturase, overexpression experiment was conducted using a budding yeast S. cerevisiae as a host. First, the acquired gene was incorporated at the EcoRI/XhoI site of a yeast vector pYES2/CT (Invitrogen) to construct an expression vectorpYΔ5des. The constructed expression vector pY5Δdes was then introduced into S. cerevisiae, and GC analysis was performed after extracting and methylating the transfectant fatty acids obtained by using the lithium acetate technique. A gas chromatograph GC-2014 (Shimadzu Corporation) was used for the GC analysis, which was performed under the following conditions. Column: HR-SS-10 (30 m×0.25 mm; Shinwa Chemical Industries Ltd.), column temperature: 150° C.→(5° C./min)→220° C. (10 min), carrier gas: He (1.3 mL/min). GC-17A and GCMS-QP-5000 (Shimadzu Corporation) were used for GC-MS analysis, which was performed using a DB-1 capillary column (0.25 mmi.d.×30 m, film thickness 0.25 μm; Agilent) under the following conditions: column temperature 160° C.→(4° C./min)→260° C., injector port temperature 250° C. For peaks that caused troubles in the analyses, the fatty acids were analyzed after picolinyl esterification, using the same apparatuses and columns under the temperature condition 240° C.→(2.5° C./min)→260° C. (15 min)→(2.5° C./min)→280° C.

[3] = tested on: Thraustochytrium aureum-derived Δ5 desaturase; test: Fatty acid composition of Δ5 desaturase-introduced Aurantiochytrium sp. mh0186 (mhΔ5neo^r), GC analysis; assay type: cell-based; details: host mh0186; 0.1 mM ETA (to EPA) or DGLA (to AA) in medium
Description: The transformed clone obtained in Example 6, (3), v. was cultured for 3 days, and mhneo^r and mhΔ5neo^r were analyzed by GC analysis after extracting the fatty acid methyl ester. Separately, 0.1 mM ETA or DGLA, exogenous fatty acids used as a substrate by Δ5 desaturase, was added to medium for incorporation into Labyrinthula, and GC analysis was performed after extracting the fatty acids as in the overexpression experiment using yeast. A gas chromatograph GC-2014 (Shimadzu Corporation) was used for the GC analysis, which was performed under the following conditions. Column: HR-SS-10 (30 m×0.25 mm; Shinwa Chemical Industries Ltd.), column temperature: 150° C.→(5° C./min)→220° C. (10 min), carrier gas: He (1.3 mL/min).
ETA or DGLA used as a substrate by Δ5 desaturase was also added to medium at 0.1 mM for incorporation into Labyrinthula. As a result, the precursor substances converted into EPA and AA in Labyrinthula, and the content increased, as observed in the Δ5 desaturase expression experiment using yeast (Tables 9 and 10). […] This experiment was repeated in three or more confirmatory experiments to confirm reproducibility. All experiments produced the same results.

[4] = tested on: A. limacinum transfectants; test: G418 resistance on PDA agar plate, ub-Neo^r transfectants; assay type: cell-based, Aurantiochytrium limacinum mh0186
Description: (§1) The transfectants were cultured in 0.5 mg/ml G418-containing GY liquid medium. The wild-type strain was cultured in GY liquid medium containing no G418. The culture fluids of these strains were spotted in 10-μl portions on PDA agar plate media containing G418 (0, 0.2, 0.5, 1, 2, 4 mg/ml), and growth on the agar plate media was observed after culturing the cells at 25° C. for 2 days. It was found as a result that the proliferation was inhibited at 0.2 mg/ml G418 in the wild-type strain, whereas the transfectants proliferated even in the presence of 4 mg/ml G418 (FIG. 13A). Further, there was no change in G418 resistance, and proliferation was observed even at a G418 concentration of 32 mg/ml in a similar experiment conducted with PDA agar plate media containing G418 (0, 2, 4, 8, 16, 32 mg/ml) after subculturing the transfectants five times in a GY liquid medium containing no G418 (FIG. 13B).

[5] = tested on: A. limacinum wild-type strain; test: G418 resistance on PDA agar plate, wild-type strain; assay type: cell-based, Aurantiochytrium limacinum mh0186; details: 25° C., 2 days
Description: as §1

## CCCCCC/C=C\CCCCCCCC(=O)O [16:1^Δ9]
[1]
  Conversion efficiency (%): 0%

## CCCCC/C=C\C/C=C\CCCCCCCC(=O)O [18:2^Δ9,12, linoleic acid]
[2]
  Percentage of substrate converted (%): 0.0%

## CC/C=C\C/C=C\C/C=C\CCCCCCCC(=O)O [18:3^Δ9,12,15, α-linolenic acid]
[2]
  Percentage of substrate converted (%): 0.0%

## CCCCC/C=C\C/C=C\C/C=C\CCCCCCC(=O)O [DGLA, dihomo-γ-linolenic acid]
[2]
  Percentage of substrate converted (%): 27%
[2]; listed as C20:3n-6 Dihomo-g-linolenic acid (DGLA)
  Percentage of substrate converted (%): 27.0%
[3]
  Conversion efficiency of the precursor substance in Labyrinthula: 63% and 62.9%

## CN[C@@H]1[C@@H](O)[C@@H](O[C@@H]2[C@@H](O)[C@H](O[C@H]3O[C@H]([C@@H](C)O)[C@@H](O)[C@H](O)[C@H]3N)[C@@H](N)C[C@H]2N)OC[C@]1(C)O [G418]
[4]; PDA agar plate, 25° C., 2 days, highest tested 4 mg/ml
  G418 concentration at which proliferation was still observed: 4 mg/mL
[4]; after subculturing five times without G418, highest tested 32 mg/ml
  G418 concentration at which proliferation was still observed: 32 mg/mL
[5]
  G418 concentration at which proliferation was inhibited: 0.2 mg/mL

## Eicosadienoic acid [C20:2n-6 Eicosadienoic acid]
[2]
  Percentage of substrate converted (%): 0.0%

## Eicosatrienoic acid [C20:3n-3 Eicosatrienoic acid]
[2]
  Percentage of substrate converted (%): 0.0%

## eicosatetraenoic acid [ETA]
[2]
  Percentage of substrate converted (%): 32%
[2]; listed as C20:4n-3 Eicosatetraenoic acid (ETA)
  Percentage of substrate converted (%): 32.0%
[3]
  Conversion efficiency of the precursor substance in Labyrinthula: 75% and 75.2%
